# Laboratory results as given in ChEMBL document CHEMBL1201862, “PubChem BioAssay data set” (2004).
#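 These data come from cells grown in 96-well plates and exposed to compound for 48 hours at five concentrations. At the GI50, growth is halved.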 Active and inactive are the calls of the source. Rule as the data show it: active = GI50 up to about 1.1 µM and inactive = higher.
# Legend:
# Experiment in all cases: DTP human tumour cell line panel, 48 h
# MDA-MB-231 = test system: MDA-MB-231
# SK-MEL-28 = test system: SK-MEL-28
# MDA-N = test system: MDA-N
# T47D = test system: T47D
# TK-10 = test system: TK-10
# OVCAR-5 = test system: OVCAR-5
# SNB-75 = test system: SNB-75
# A549 = test system: A549
# K562 = test system: K562
# HT-29 = test system: HT-29
# RPMI-8226 = test system: RPMI-8226
# HOP-92 = test system: HOP-92
# ACHN = test system: ACHN
# HOP-62 = test system: HOP-62
# SF-295 = test system: SF-295
# SW-620 = test system: SW-620
# SK-MEL-5 = test system: SK-MEL-5
# MDA-MB-435 = test system: MDA-MB-435
# COLO 205 = test system: COLO 205
Structure (SMILES),GI50 (MDA-MB-231),GI50 (SK-MEL-28),GI50 (MDA-N),GI50 (T47D),GI50 (TK-10),GI50 (OVCAR-5),GI50 (SNB-75),GI50 (A549),GI50 (K562),GI50 (HT-29),GI50 (RPMI-8226),GI50 (HOP-92),GI50 (ACHN),GI50 (HOP-62),GI50 (SF-295),GI50 (SW-620),GI50 (SK-MEL-5),GI50 (MDA-MB-435),GI50 (COLO 205)
[N-]=[N+]=Nc1c(-c2ccccc2)c(Cl)nc2ccccc12,31.8 µM (inactive),58.7 µM (inactive),27 µM (inactive),41 µM (inactive),74.5 µM (inactive),> 100 µM (inactive),29.9 µM (inactive),29.9 µM (inactive),45.7 µM (inactive),19.7 µM (inactive),29.7 µM (inactive),22 µM (inactive),19.6 µM (inactive),34.1 µM (inactive),22.8 µM (inactive),35.4 µM (inactive),17.3 µM (inactive),38.3 µM (inactive),20 µM (inactive)
Nc1nc(Cl)cc(NCC2(CO)CC(OCc3ccccc3)C2)n1 (centres undefined),63.2 µM (inactive),> 100 µM (inactive),> 100 µM (inactive),2.94 µM (inactive),19.4 µM (inactive),> 100 µM (inactive),16.4 µM (inactive),54.8 µM (inactive),14.6 µM (inactive),> 100 µM (inactive),45.9 µM (inactive),> 100 µM (inactive),> 100 µM (inactive),68.4 µM (inactive),> 100 µM (inactive),> 100 µM (inactive),7 µM (inactive),43.6 µM (inactive),> 100 µM (inactive)
NC1(C(=O)O)CCCC1C(=O)O (centres undefined),> 100 µM (inactive),> 100 µM (inactive),> 100 µM (inactive),> 100 µM (inactive),> 100 µM (inactive),> 100 µM (inactive),> 100 µM (inactive),> 100 µM (inactive),> 100 µM (inactive),> 100 µM (inactive),> 100 µM (inactive),> 100 µM (inactive),> 100 µM (inactive),> 100 µM (inactive),> 100 µM (inactive),> 100 µM (inactive),> 100 µM (inactive),> 100 µM (inactive),> 100 µM (inactive)
CCCN(CCC)C1CCc2c(ccc3cc[nH]c23)C1 (centres undefined),41.3 µM (inactive),31.9 µM (inactive),> 100 µM (inactive),> 100 µM (inactive),> 100 µM (inactive),> 100 µM (inactive),25.6 µM (inactive),> 100 µM (inactive),30.5 µM (inactive),33.5 µM (inactive),41 µM (inactive),27.7 µM (inactive),> 100 µM (inactive),> 100 µM (inactive),> 100 µM (inactive),> 100 µM (inactive),20.7 µM (inactive),89.3 µM (inactive),29.8 µM (inactive)
CC(=O)C1(c2ccccc2)CCN(Cn2sc3nc(C)cc(C)c3c2=O)CC1,33 µM (inactive),31.6 µM (inactive),19.8 µM (inactive),55.6 µM (inactive),20.1 µM (inactive),19.5 µM (inactive),28.3 µM (inactive),64.7 µM (inactive),26.7 µM (inactive),19.1 µM (inactive),56.9 µM (inactive),59.4 µM (inactive),17.8 µM (inactive),34.8 µM (inactive),> 100 µM (inactive),24.4 µM (inactive),30.1 µM (inactive),23.1 µM (inactive),17.6 µM (inactive)
C=C(C(=O)O[C@H]1C/C(C)=C/CC/C(CO)=C/[C@H]2C(=O)OC(=C)[C@H]12)C(O)CO (some centres undefined),17.9 µM (inactive),14.5 µM (inactive),11.7 µM (inactive),3.75 µM (inactive),7.93 µM (inactive),17.3 µM (inactive),18.7 µM (inactive),22.9 µM (inactive),4.08 µM (inactive),17.9 µM (inactive),2 µM (inactive),8.75 µM (inactive),12.3 µM (inactive),24.5 µM (inactive),26.1 µM (inactive),3.71 µM (inactive),15.5 µM (inactive),9.59 µM (inactive),3.37 µM (inactive)
CC1(C)C2CCC1(C)[C@H](n1c(=O)n([C@@H]3CC4CCC3(C)C4(C)C)c(=O)n([C@@H]3CC4CCC3(C)C4(C)C)c1=O)C2,45.5 µM (inactive),92 µM (inactive),68.4 µM (inactive),42.6 µM (inactive),42.9 µM (inactive),64 µM (inactive),16.2 µM (inactive),31.8 µM (inactive),85.9 µM (inactive),56.8 µM (inactive),57.9 µM (inactive),87.7 µM (inactive),37.8 µM (inactive),44.4 µM (inactive),29.6 µM (inactive),98.2 µM (inactive),34 µM (inactive),76.7 µM (inactive),–
CC(NC1=NCCO1)c1ccccc1Cl (centres undefined),> 100 µM (inactive),> 100 µM (inactive),> 100 µM (inactive),> 100 µM (inactive),> 100 µM (inactive),> 100 µM (inactive),96.2 µM (inactive),> 100 µM (inactive),> 100 µM (inactive),25.1 µM (inactive),> 100 µM (inactive),< 0.01 µM (active),> 100 µM (inactive),> 100 µM (inactive),> 100 µM (inactive),> 100 µM (inactive),> 100 µM (inactive),> 100 µM (inactive),> 100 µM (inactive)
CC(C)NC(=O)OCc1c(COC(=O)NC(C)C)c(-c2ccc[n+](COC(=O)Cc3ccccc3)c2)n2c1CCC2,26.2 µM (inactive),> 100 µM (inactive),80 µM (inactive),28.7 µM (inactive),45 µM (inactive),36.1 µM (inactive),24.3 µM (inactive),44.8 µM (inactive),71 µM (inactive),26.1 µM (inactive),23.6 µM (inactive),16.4 µM (inactive),13.2 µM (inactive),31.7 µM (inactive),35 µM (inactive),22.5 µM (inactive),33.4 µM (inactive),71.1 µM (inactive),41.7 µM (inactive)
CNc1ncnc2c1cnn2COCC(O)CO (centres undefined),> 100 µM (inactive),> 100 µM (inactive),> 100 µM (inactive),> 100 µM (inactive),> 100 µM (inactive),> 100 µM (inactive),> 100 µM (inactive),> 100 µM (inactive),> 100 µM (inactive),> 100 µM (inactive),> 100 µM (inactive),> 100 µM (inactive),> 100 µM (inactive),> 100 µM (inactive),> 100 µM (inactive),> 100 µM (inactive),> 100 µM (inactive),> 100 µM (inactive),> 100 µM (inactive)
COc1ccc(C)cc1NC(=S)C#N,> 100 µM (inactive),> 100 µM (inactive),> 100 µM (inactive),> 100 µM (inactive),31.9 µM (inactive),29.6 µM (inactive),25.1 µM (inactive),> 100 µM (inactive),> 100 µM (inactive),30.8 µM (inactive),74.8 µM (inactive),> 100 µM (inactive),30.3 µM (inactive),29.6 µM (inactive),31.9 µM (inactive),> 100 µM (inactive),> 100 µM (inactive),> 100 µM (inactive),> 100 µM (inactive)
C=C(Cl)C(Cl)(CBr)CCCC(C)C (centres undefined),20.7 µM (inactive),19.4 µM (inactive),22 µM (inactive),> 21.2 µM (inactive),16.4 µM (inactive),19.9 µM (inactive),8.83 µM (inactive),21.4 µM (inactive),26.5 µM (inactive),4.42 µM (inactive),2.92 µM (inactive),17.2 µM (inactive),13.3 µM (inactive),13.7 µM (inactive),15.8 µM (inactive),40.1 µM (inactive),> 100 µM (inactive),37.5 µM (inactive),19.4 µM (inactive)
CCO/C=N/NC(=O)CSc1nc2ccc(I)cc2c(=O)n1Cc1ccccc1,38 µM (inactive),> 100 µM (inactive),37.8 µM (inactive),44.9 µM (inactive),34.7 µM (inactive),> 100 µM (inactive),40.5 µM (inactive),> 100 µM (inactive),11 µM (inactive),40.2 µM (inactive),49.3 µM (inactive),83.6 µM (inactive),> 100 µM (inactive),37.4 µM (inactive),56.4 µM (inactive),46.2 µM (inactive),> 100 µM (inactive),38.7 µM (inactive),57.4 µM (inactive)
FC(F)(F)c1nc2ccc(SSc3ccc4nc(C(F)(F)F)[nH]c4c3)cc2[nH]1,23 µM (inactive),> 10 µM (inactive),80.5 µM (inactive),38.8 µM (inactive),79.3 µM (inactive),> 100 µM (inactive),> 10 µM (inactive),42.3 µM (inactive),31.9 µM (inactive),> 10 µM (inactive),25.1 µM (inactive),> 10 µM (inactive),88.7 µM (inactive),31.6 µM (inactive),4.41 µM (inactive),61.1 µM (inactive),45.9 µM (inactive),40.6 µM (inactive),33.9 µM (inactive)
CC(C)=CCN(N=O)c1ncnc2[nH]cnc12,> 100 µM (inactive),> 100 µM (inactive),> 100 µM (inactive),94.6 µM (inactive),> 100 µM (inactive),> 100 µM (inactive),54.8 µM (inactive),> 100 µM (inactive),73.6 µM (inactive),> 100 µM (inactive),88.1 µM (inactive),> 100 µM (inactive),> 100 µM (inactive),> 100 µM (inactive),> 100 µM (inactive),> 100 µM (inactive),> 100 µM (inactive),> 100 µM (inactive),> 100 µM (inactive)
